Several values for one entry are separate records, joined by “and”; a condition that tells them apart may be missing. Equal values may be shown once. Inconclusive results and toxic doses are left out. Cut-off read from the data, not from the text of the source: active = T/C of 150% or more; inactive = T/C below 125%. Peptide text beside a SMILES is read from it. * marks the point of attachment. Cbz = O=C(OCc1ccccc1)*
Test system: L1210 leukemia ip in BDF1 mice, survival T/C
Test: NCI In Vivo Anticancer Drug Screen. Data for tumor model L1210 Leukemia (intraperitoneal) in B6D2F1 (BDF1) mice
Details: endpoint: mean survival time, higher = longer survival
Summary of the method: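 Transplantable tumor model; survival measured in treated vs vehicle control mice. Value = treated/control.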

[1] = dose: 100.0 mg/kg/injection, schedule: Q01DX009 (ip), vehicle: Klucel (hydroxypropylcellulose) (HPC)
[2] = dose: 100.0 mg/kg/injection, schedule: Q04DX003 (ip), vehicle: Klucel (hydroxypropylcellulose) (HPC)
[3] = dose: 200.0 mg/kg/injection, schedule: Q01DX009 (ip), vehicle: Klucel (hydroxypropylcellulose) (HPC)
[4] = dose: 200.0 mg/kg/injection, schedule: Q04DX003 (ip), vehicle: Klucel (hydroxypropylcellulose) (HPC)
[5] = dose: 400.0 mg/kg/injection, schedule: Q01DX009 (ip), vehicle: Klucel (hydroxypropylcellulose) (HPC)
[6] = dose: 400.0 mg/kg/injection, schedule: Q04DX003 (ip), vehicle: Klucel (hydroxypropylcellulose) (HPC)
[7] = dose: 100.0 mg/kg/injection, schedule: Q04DX003 (ip), vehicle: saline with Tween-80
[8] = dose: 200.0 mg/kg/injection, schedule: Q04DX003 (ip), vehicle: saline with Tween-80
[9] = dose: 100.0 mg/kg/injection, schedule: Q01DX001 (ip), vehicle: Klucel (hydroxypropylcellulose) (HPC)
[10] = dose: 100.0 mg/kg/injection, schedule: Q04DX003 (ip), vehicle: saline
[11] = dose: 200.0 mg/kg/injection, schedule: Q04DX003 (ip), vehicle: saline
[12] = dose: 50.0 mg/kg/injection, schedule: Q01DX009 (ip), vehicle: gum acacia
[13] = dose: 100.0 mg/kg/injection, schedule: Q04DX002 (ip), vehicle: Klucel (hydroxypropylcellulose) (HPC)
[14] = dose: 200.0 mg/kg/injection, schedule: Q04DX002 (ip), vehicle: Klucel (hydroxypropylcellulose) (HPC)
[15] = dose: 400.0 mg/kg/injection, schedule: Q04DX002 (ip), vehicle: Klucel (hydroxypropylcellulose) (HPC)

Measured: T/C

O=C(Cl)Oc1cccc2ccccc12
inactive: dose: 50.0 mg/kg/injection, schedule: Q01DX001 (ip), vehicle: saline 108 % of control | dose: 100.0 mg/kg/injection, schedule: Q01DX001 (ip), vehicle: saline 113 % of control | dose: 200.0 mg/kg/injection, schedule: Q01DX001 (ip), vehicle: saline 104 % of control | dose: 400.0 mg/kg/injection, schedule: Q01DX001 (ip), vehicle: saline 98 % of control

CN(C)C(=S)Oc1c([N+](=O)[O-])cc([N+](=O)[O-])cc1C(C)(C)C
inactive: dose: 25.0 mg/kg/injection, schedule: Q04DX002 (ip), vehicle: saline with Tween-80 86 % of control | dose: 50.0 mg/kg/injection, schedule: Q04DX002 (ip), vehicle: saline with Tween-80 86 % of control

NC(=O)c1ccccc1C(N)=O
inactive: [1] 97 % of control | [2] 100 % of control | [3] 98 % of control | [4] 102 % of control | [5] 93 % of control | [6] 100 % of control

CC(=O)OCC1OC(n2ncc3c(=O)[nH]cnc32)C(OC(C)=O)C1OC(C)=O (stereo unspecified)
inactive: dose: 12.5 mg/kg/injection, schedule: Q01DX005 (ip), vehicle: water 103 % of control | dose: 25.0 mg/kg/injection, schedule: Q01DX005 (ip), vehicle: water 104 % of control | dose: 50.0 mg/kg/injection, schedule: Q01DX005 (ip), vehicle: water 97 % of control | dose: 100.0 mg/kg/injection, schedule: Q01DX005 (ip), vehicle: water 98 % of control | dose: 200.0 mg/kg/injection, schedule: Q01DX005 (ip), vehicle: water 92 % of control

c1ccc(-c2ccc(-c3cnc(-c4ccccc4)[nH]3)cc2)cc1
inactive: dose: 100.0 mg/kg/injection, schedule: Q01DX001 (ip), vehicle: saline with Tween-80 95 % of control | dose: 200.0 mg/kg/injection, schedule: Q01DX001 (ip), vehicle: saline with Tween-80 92 % of control | dose: 400.0 mg/kg/injection, schedule: Q01DX001 (ip), vehicle: saline with Tween-80 92 % of control

CC(C)C[CH2][Pb]([CH2]CC(C)C)([CH2]CC(C)C)[O]C(=O)C(Cl)(Cl)Cl
inactive: dose: 3.12 mg/kg/injection, schedule: Q01DX009 (ip), vehicle: Klucel (hydroxypropylcellulose) (HPC) 98 % of control | dose: 3.12 mg/kg/injection, schedule: Q04DX002 (ip), vehicle: Klucel (hydroxypropylcellulose) (HPC) 96 % of control | dose: 6.25 mg/kg/injection, schedule: Q01DX009 (ip), vehicle: Klucel (hydroxypropylcellulose) (HPC) 95 % of control | dose: 6.25 mg/kg/injection, schedule: Q04DX002 (ip), vehicle: Klucel (hydroxypropylcellulose) (HPC) 115 % of control | dose: 12.5 mg/kg/injection, schedule: Q01DX009 (ip), vehicle: Klucel (hydroxypropylcellulose) (HPC) 98 % of control | dose: 12.5 mg/kg/injection, schedule: Q04DX002 (ip), vehicle: Klucel (hydroxypropylcellulose) (HPC) 93 % of control and 87 % of control

CN(C)CCC/C=N/Nc1ccc(Cl)cc1[N+](=O)[O-]
inactive: [7] 96 % of control | [8] 91 % of control

O=c1c(N=Nc2ccc(Cl)cc2)c(O)n(-c2ccccc2Cl)c(=S)n1-c1ccccc1
inactive: dose: 25.0 mg/kg/injection, schedule: Q01DX001 (ip), vehicle: Klucel (hydroxypropylcellulose) (HPC) 92 % of control | dose: 50.0 mg/kg/injection, schedule: Q01DX001 (ip), vehicle: Klucel (hydroxypropylcellulose) (HPC) 94 % of control | [9] 89 % of control

CSc1nc([N+](C)(C)C)cc([N+](C)(C)C)n1
inactive: dose: 6.0 mg/kg/injection, schedule: Q01DX Z (ip), vehicle: saline 91 % of control

O=[N+]([O-])c1ccccc1C1CCCCC1
inactive: dose: 100.0 mg/kg/injection, schedule: Q04DX002 (ip), vehicle: saline with Tween-80 89 % of control | dose: 200.0 mg/kg/injection, schedule: Q04DX002 (ip), vehicle: saline with Tween-80 93 % of control | dose: 400.0 mg/kg/injection, schedule: Q04DX002 (ip), vehicle: saline with Tween-80 100 % of control

CCCCCCCCC(=O)N(C)CCO
inactive: dose: 25.0 mg/kg/injection, schedule: Q01DX009 (ip), vehicle: saline 104 % of control | dose: 50.0 mg/kg/injection, schedule: Q01DX009 (ip), vehicle: saline 96 % of control | dose: 100.0 mg/kg/injection, schedule: Q01DX009 (ip), vehicle: saline 100 % of control | [10] 109 % of control | [8] 95 % of control | [11] 98 % of control

N=C(N)SCc1ccc(Cl)cc1
inactive: dose: 25.0 mg/kg/injection, schedule: Q04DX002 (ip), vehicle: saline 98 % of control | dose: 50.0 mg/kg/injection, schedule: Q04DX002 (ip), vehicle: saline 94 % of control | dose: 100.0 mg/kg/injection, schedule: Q04DX002 (ip), vehicle: saline 101 % of control

COc1ccccc1N1C(=O)C2C(C1=O)C1(Cl)C(Cl)=C(Cl)C2(Cl)C1(Cl)Cl (stereo unspecified)
inactive: dose: 50.0 mg/kg/injection, schedule: Q01DX009 (ip), vehicle: Klucel (hydroxypropylcellulose) (HPC) 101 % of control | [1] 95 % of control | [2] 103 % of control | [3] 101 % of control and 92 % of control | [4] 109 % of control

CC(O)(CC(c1ccccc1)N1CCc2ccccc2C1)c1ccccc1 (stereo unspecified)
inactive: [10] 105 % of control | [11] 102 % of control | dose: 400.0 mg/kg/injection, schedule: Q04DX003 (ip), vehicle: saline 96 % of control

O=C(O)CNC(=O)CNC(=O)OCc1ccccc1 (Cbz-Gly-Gly-OH)
inactive: [1] 95 % of control | [2] 97 % of control | [3] 95 % of control | [4] 101 % of control | [5] 100 % of control | [6] 94 % of control

O[C@@H]1CCC[C@H]1n1cnc2c(=S)nc[nH]c21
inactive: dose: 89.0 mg/kg/injection, schedule: Q04DX003 (ip), vehicle: saline with Tween-80 104 % of control | dose: 133.0 mg/kg/injection, schedule: Q04DX003 (ip), vehicle: saline with Tween-80 112 % of control

NC(=S)N/N=C(\c1ccccc1)c1ccccn1
inactive: dose: 12.5 mg/kg/injection, schedule: Q01DX009 (ip), vehicle: gum acacia 101 % of control | dose: 25.0 mg/kg/injection, schedule: Q01DX001 (ip), vehicle: gum acacia 100 % of control | dose: 25.0 mg/kg/injection, schedule: Q01DX009 (ip), vehicle: gum acacia 95 % of control | dose: 25.0 mg/kg/injection, schedule: Q04DX003 (ip), vehicle: gum acacia 105 % of control | dose: 50.0 mg/kg/injection, schedule: Q01DX001 (ip), vehicle: gum acacia 106 % of control | [12] 93 % of control | dose: 50.0 mg/kg/injection, schedule: Q04DX003 (ip), vehicle: gum acacia 100 % of control | dose: 100.0 mg/kg/injection, schedule: Q01DX001 (ip), vehicle: gum acacia 95 % of control

COc1ccc(OC)c(/C=C(C(=O)O)/C(=C/c2cc(OC)ccc2OC)C(=O)O)c1
inactive: [7] 105 % of control | [8] 102 % of control | dose: 400.0 mg/kg/injection, schedule: Q04DX003 (ip), vehicle: saline with Tween-80 97 % of control

COc1ccc(NC(=O)Nc2ccc(CCO)cc2)c(OC)c1
inactive: [13] 97 % of control | [14] 93 % of control | [15] 93 % of control

O=C1C(Cl)=C(Nc2nc3ccccc3s2)C(=O)c2ccccc21
inactive: [9] 100 % of control | dose: 200.0 mg/kg/injection, schedule: Q01DX001 (ip), vehicle: Klucel (hydroxypropylcellulose) (HPC) 94 % of control

OC(CC(O)(C(F)(F)F)C(F)(F)F)c1cccc(Cl)c1 (stereo unspecified)
inactive: [12] 96 % of control | dose: 100.0 mg/kg/injection, schedule: Q01DX009 (ip), vehicle: gum acacia 94 % of control | dose: 100.0 mg/kg/injection, schedule: Q04DX003 (ip), vehicle: gum acacia 104 % of control | dose: 200.0 mg/kg/injection, schedule: Q04DX003 (ip), vehicle: gum acacia 95 % of control

O=C1c2ccccc2C(=O)c2cc(Cl)ccc21
inactive: [13] 95 % of control | [14] 98 % of control | [15] 98 % of control

CCCCCCCCCCCCSC(=O)NCCC
inactive: dose: 100.0 mg/kg/injection, schedule: Q01DX009 (ip), vehicle: other 95 % of control | dose: 200.0 mg/kg/injection, schedule: Q01DX009 (ip), vehicle: other 90 % of control | dose: 400.0 mg/kg/injection, schedule: Q01DX009 (ip), vehicle: other 92 % of control
